# Settings: buffer; pH 7.4; 200.0 µM
row,solubility kinetic [µg/mL],SMILES
1,> 45.7,COc1cc(C2NC(=S)NC3=C2C(=O)CCC3)ccc1O (centres undefined)
2,> 29.1,O=C1NC(=O)C(c2ccc(F)cc2)N1 (centres undefined)
3,> 47,CN(Cc1cccnc1)C(=O)CNC(=O)COc1ccccc1
4,42,COc1ccc(CCNC(=O)c2cc(C)oc2C)cc1OC
5,6.6,O=C(NCCc1ccc(C(F)(F)F)cc1)c1ccc(Cl)nc1
6,> 50.6,O=C(N1CCCCC1)N1CCN(S(=O)(=O)c2ccccc2)CC1
7,> 52,O=C(Nc1ccc(S(=O)(=O)N2CCOCC2)cc1)c1ccccc1
8,15.6,Cc1noc(C)c1C(=O)OCC(=O)NCc1ccc(Cl)cc1
9,> 37.5,Cc1cc(SCc2ccccc2F)nc(=O)[nH]1
10,27.2,Cc1cc(C)c2oc(C(=O)N3CCN(C)CC3)cc(=O)c2c1
11,1.9,Cc1cc(C)c(C(N)=O)c(SCC(=O)c2cc(C)n(-c3cc(C)on3)c2C)n1
12,11.2,O=C(COc1ccc(F)cc1)NCCNC(=O)COc1ccc(F)cc1
13,> 49.9,COc1ccc(S(=O)(=O)c2c[nH]c(=S)[nH]c2=O)cc1Cl
14,> 41.6,COc1ccc(/C=C/C(=O)N2CCOCC2)cc1OC
15,11.9,CC(C)CCc1noc(CN(CC2CCC2)CC2CCCO2)n1 (centres undefined)
16,> 44.6,O=C(O)CCc1[nH]c2ccccc2c1Sc1ccccc1
17,43.9,CCOC(=O)C1=C(c2ccccc2)NC(=O)NC1c1ccsc1 (centres undefined)
18,3.5,N#C/C(=C\c1ccco1)C(=O)Nc1ccc(S(N)(=O)=O)cc1
19,> 32.4,CNC(=O)c1oc(-c2ccccc2)nc1C

row,solubility kinetic [µg/mL],SMILES
1,> 55.8,O=C(N/C(=C/c1cccnc1)C(=O)N1CCOCC1)c1ccccc1Cl
2,< 0.3,CC(=O)Nc1nc2c(C)c(Cl)ccc2s1
3,3,COc1ccc(NC(=O)c2oc3ccccc3c2CSC)cn1
4,> 47.9,CCOc1ccccc1N1CN(C2CCCCC2)CNC1=S
5,1.7,O=C1NC(=S)N/C1=C/c1cccc2ccccc12
6,1.7,c1ccc(C(NCCNC(c2ccccc2)c2ccccc2)c2ccccc2)cc1
7,> 27.9,CC(=O)c1ccc(-n2ccnc2)cc1
8,< 0.3,CC(C)C1/C(=N/O)CC(c2ccccc2)NC1c1ccccc1 (centres undefined)
9,22.2,CC(C)C(=O)Nc1ccc(-c2nc3ncccc3o2)cc1
10,> 47.7,O=C(Nc1ccc(Cl)cc1)N1CCCC(Cn2cccc2)C1 (centres undefined)
11,< 0.7,Cc1ccc2c(CN(C)Cc3cccc(Cl)c3)cc(=O)oc2c1C
12,> 38.6,Cc1ccccc1N1C(=O)C2C3CCC(O3)C2C1=O (centres undefined)
13,45.4,CN1CCCC(OC(=O)c2cc(F)c(F)c(F)c2F)C1.Cl (centres undefined)
14,> 42.8,O=C(CSc1ccccc1)NCCCc1ccccc1
15,36,CCOC(=O)COc1nc(C)cc(C(F)(F)F)c1C#N
16,> 45.9,Cc1ccc(F)cc1NS(=O)(=O)c1ccc(Cl)s1
17,35.7,O=C(Nc1ccc2c(c1)OCCO2)c1ccoc1
18,39.3,O=C(Nc1ccncc1)C1CC(=O)N(c2ccc(F)cc2)C1 (centres undefined)
19,3.6,Cc1nc(N/C(N)=N/S(=O)(=O)c2ccccc2)nc2ccccc12

row,solubility kinetic [µg/mL],SMILES
1,24.2,CCCCOc1ccc(-c2ncc(N)cn2)cc1
2,> 46.9,O=C1Nc2ccccc2C1c1ncc(C(F)(F)F)cc1Cl (centres undefined)
3,1.4,O=[N+]([O-])c1ccc(O)c(Nc2ncnc3ccccc23)c1
4,35.6,Fc1cccc(NCCc2c[nH]c3ccccc23)n1
5,> 51.2,Cc1cccc(OCC(=O)NCCCNC(=O)c2ccc(C)nc2)c1
6,> 45.5,Cc1cccc(NC(=O)CCS(=O)(=O)c2ccccc2)c1
7,> 49.6,O=C(/C=C/c1cccc([N+](=O)[O-])c1)N1CC[C@@]2(O)CCCC[C@H]2C1
8,28.6,O=c1[nH]c(=S)[nH]c2c1CN(Cc1ccc(F)cc1)CC2
9,> 30,Cc1ccc2[nH]c3c(c2c1)CCN(C)C3
10,4.9,O=C(Cc1ccccc1)Nc1c(Cl)ccc2nsnc12
11,> 47.2,CC(=O)c1ccccc1OCCOc1ncnc2sccc12
12,12.4,O=C1c2ccccc2CN1c1ccccc1
13,> 57,Cc1csc(=O)n1CCC(=O)OCc1nnc(-c2ccccc2Cl)o1
14,< 0.7,Cc1ccc2[nH]cc(S(=O)(=O)c3ccc(C)c(C)c3)c(=O)c2c1
15,8.9,Cc1cccc(C(=O)NC2CCCCCCC2)c1
16,> 41.1,Cc1cccc(N(Cc2ccccc2)C(=O)CCl)c1
17,> 41,Cc1ccc(CCC(=O)Nc2ccccc2C(=O)O)o1
18,> 44.8,N#Cc1cccnc1N1CCN(C(=O)c2cccs2)CC1

row,SMILES,solubility kinetic [µg/mL]
1,O=C(Nc1nccs1)C(Cl)(Cl)Cl,> 36.8
2,Clc1ccc(CSC(Cn2ccnc2)c2ccc(Cl)cc2Cl)cc1.O=[N+]([O-])O (centres undefined),48.7
3,Cc1cc(NC(=O)CN2CCC(C)CC2)no1.O=C(O)C(=O)O,> 49.1

# From PubChem BioAssay AID1996
